Assay type in all cases: in vivo
Data set [1] deals with Male ICR mice. Kind of data set: Social interaction test. The protocol:
This protocol was modified from the original social interaction test (Lin et al. 2010; Qiao et al. 2001). The social interaction between pairs of mice was examined in an open-field box (35×35×30 cm) under normal room lighting. The paired mice were randomly assigned from different home cages with the same drug treatment. […] Five minutes later, each pair of unfamiliar mice was placed in the apparatus for 10 min and the total time that a pair spent in social interaction and specific social interaction behaviors (sniffing the partner, following, mounting, and crawling under or over the partner) were recorded by an observer who was blind to the drug treatments.

For data set [2], the system named is Male ICR mice. Kind of data set: Novelty suppressed feeding test (NSF). As to conditions: 1 h prior to test, vs saline-treated mice. The protocol: NSF test consisted of food-depriving mice overnight (24 hours). The test drug (10, 20 and 30 mg/kg), ketamine (10 mg/kg) or saline was administered 1 h prior to the test. At the time of testing, a single food pellet placed in the middle of a novel environment (a test box 40×40×40 cm). The latency to start feeding was used as a measure for depressive-like or anxiety-like behavior.

For data set [3], the system named is Male ICR mice. Kind of data set: Prepulse inhibition test (PPI) of acoustic startle. As to conditions: for PPI: ketamine 30 mg/kg alone. The protocol: The PPI was operated as described in our previous work (Chan et al., 2012a). Briefly, the animals were initially moved from the home cage, weighed, and then placed into the restrainers in the SR-LAB (San Diego Instruments, San Diego, Calif., USA) acoustic startle chambers for 30-min habituation. The test drug (0, 30 and 100 mg/kg) was administered 30 min prior to ketamine (30 mg/kg) or saline injection. After administration of ketamine or saline, the experiment started with a 5-min adaptation period during which the animals were exposed to 67-dB background white noise, and this background noise was continued throughout the session. Then, the following adaptation period startle session began with five initial startle stimuli (120 dB bursts of white noise, 40 ms duration). After the first five initial stimuli, mice received five different trial types: pulse alone trials (120 dB bursts of white noise, 40 ms duration), three prepulse and pulse trials in which 76, 81, or 86 dB white noise bursts (9, 14, and 19 dB above background) of 20 ms duration preceded 120 dB pulse by 100 ms prepulse onset to pulse onset, and no-stimuli trials during which only background noise was applied. Each of these trial types was presented five times in randomized order. The inter trial interval was 7-23 s, and the test lasted 15 min in total. Prepulse inhibition was calculated as the percent inhibition of the startle amplitude evoked by the pulse alone: % PPI=(magnitude on pulse alone trial−magnitude on prepulse+pulse trial/magnitude on pulse alone trial)×100.

For data set [4], the system named is Male ICR mice. Kind of data set: Open field test / locomotor activity. The protocol:
To evaluate the effect of DMG on ketamine-induced locomotor hyperactivity, the animals were moved from the home cage, weighed and placed into an activity cage (Columbus Auto-Track System, Version 3.0 A, Columbus Institute, Columbus, Ohio, USA) for 2 hours. Thereafter, the test drug (0, 30, and 100 mg/kg) was given 30 min prior to ketamine (30 mg/kg) or saline. The distance (cm) traveled was recorded for totally 180 min. A 70% alcohol solution was used to clean the inner surface of all the testing apparatus between trials to remove any potentially interfering odors left by the previous mouse.

In data set [5] the test system is Male ICR mice. As to the kind of experiment: Forced swim test (FST): duration of immobility, struggling and swimming. The protocol:
(§1) FST was conducted for two consecutive days. Mice were placed in a Plexiglas cylinder (33.5 cm height, 20 cm diameter) filled with 25±2° C. water to a height of 18-20 cm. For the first exposure, mice were placed in the water for 15 min (pre-test session) followed by […]. Twenty-four hours later (day 1 test session), various doses of test drug (at 0, 30 and 100 mg/kg) was administered 30 min prior to the ketamine (10 mg/kg) or saline. Then, the mice were tested 30 min after ketamine injection which placed in the water again for a 6 min session (test session), the first 2 minutes has elapsed. Immobility was assigned when no additional activity was observed other than that required to keep the head above the water.
This experiment included a control group and various doses of ketamine (3, 10, 15 mg/kg), betaine (10, 20, 30 mg/kg) and betaine (10, 20, 30 mg/kg) pretreatment prior to ketamine (fixed dose at 10 mg/kg). […] There was no significant effect of test session or interaction.

Data set [6] deals with Male ICR mice. As to the kind of experiment: Loss of righting reflex (LORR). As for the experimental part: The test drug betaine (0, 300, and 600 mg/kg) or DMG (0, 100 and 300 mg/kg) was administered 30 min prior to the anesthetic doses of ketamine (100 mg/kg). Then, the mice were placed in a clean cage until the righting reflex was lost. They were then placed in the supine position until recovery and the onset and duration of the loss of righting reflex was recorded. Recovery of the righting reflex was defined as the ability to perform three successive rightings.

In data set [7] the test system is Male ICR mice. Kind of data set: Rotarod test (motor coordination). As for the experimental part: Motor coordination was examined using an automated rotarod device (Singa; Technology Co., Ltd, Taiwan) for a maximum of 6 mice. A computer recorded the latency to fall in seconds. During two-three days training period, the mice were first trained on the rotarod at a constant speed of 20 rotations per minute (rpm) until all of the mice were able to spend at least 3 min on the road. The test drug (0, 30 and 100 mg/kg) was administered 30 min prior to the ketamine (30 mg/kg) or saline injection. Then, the mice were tested 10, 15, 20, 25, and 30 min after ketamine injection.
Background: Falling from the rotarod earlier than controls is read as motor impairment.

Data set [8] concerns Male ICR mice. Kind of data set: Forced swimming test (FST) scored by time-sampling method. As to conditions: day 1 and 8, post hoc vs control. As for the experimental part:
as §1
The acute and sustained effects of various doses of ketamine (3, 10, 15 mg/kg) and betaine (10, 20, 30 mg/kg) on FST were assessed on day 1 and 8, respectively (FIGS. 1A and 1B). […] There was no significant effect of test session or interaction.

Setting [9] is: ketamine 15 mg/kg, day 7 retest session, vs control.
The mark [10] stands for this setting: betaine 30 and 100 mg/kg alone, 60 min after administration.
[11] abbreviates: betaine 30 mg/kg pretreatment prior to ketamine 10 mg/kg, day 1 test session.
The mark [12] stands for this setting: betaine 300 and 600 mg/kg 30 min prior to ketamine 100 mg/kg.

“Also recorded” adds a separate entry of the source.

As to `CNC1(c2ccccc2Cl)CCCCC1=O` (racemic) [ketamine], the social interaction duration result in the data set on Male ICR mice [1] (ketamine 30 mg/kg) was “reduction”. Also, in the data set with Male ICR mice [2] (ketamine 10 mg/kg), the “latency to feed in the NSF” value is given as “significantly reduced”. In addition, the PPI entry in the data set with Male ICR mice [3] was “reduced”; with Male ICR mice [3] (listed as Ketamine) it was “significantly reduced”. Further, the “total travel distances after ketamine administration” value in the data set on Male ICR mice [4] (ketamine 30 mg/kg, measured for 30 min) is given as “increased”. The “duration of immobility in FST” value with Male ICR mice [5] (ketamine 10 mg/kg, DMG experiment, tested 30 min after ketamine) is given as “significantly decreased”; in the data set with Male ICR mice [5] (ketamine 15 mg/kg, day 7 retest session, vs vehicle control), “significantly decreased”; with Male ICR mice [5] (ketamine 3, 10 and 15 mg/kg, day 1 test session, vs vehicle control) it was “significantly reduced”; in the data set with Male ICR mice [5] (ketamine 10 and 15 mg/kg, main effect over both sessions) it was “significantly decreased”. Also, the “duration of struggling in FST” value was “significantly increased” in the data set with Male ICR mice [5] (ketamine 15 mg/kg, day 1 test session, vs control); “significantly increased” in the data set with Male ICR mice [5] (setting [9]); “significantly increased” in the data set on Male ICR mice [5] (ketamine 15 mg/kg, over both sessions). Further, the “duration of swimming in FST” value with Male ICR mice [5] (setting [9]) is “significantly increased”; with Male ICR mice [5] (ketamine 10 and 15 mg/kg, day 1 test session, vs control), “significantly increased”; in the data set with Male ICR mice [5] (ketamine 10 and 15 mg/kg, over both sessions) it was “significantly increased”. For the same molecule, the “loss of righting reflex” value in the data set on Male ICR mice [6] (ketamine 100 mg/kg i.p. (anesthetic dose)) is “produced a loss of righting reflex; also recorded: produced LORR”. The “latency to stay on the rotarod” value in the data set with Male ICR mice [7] (ketamine 30 mg/kg, 10-30 min after administration) is “significantly decreased”. In the data set with Male ICR mice [8] (ketamine 3, 10 and 15 mg/kg), the “count of immobility in FST” value is listed as “significantly decreased”.

Turning to `C[N+](C)(C)CC(=O)O` [betaine], the “reduction in social interaction duration induced by ketamine” value with Male ICR mice [1] (betaine 30 and 100 mg/kg i.p. prior to ketamine 30 mg/kg) is reported as “significantly attenuated”. In the data set on Male ICR mice [2] (betaine 30 mg/kg i.p.), the “latency to feed in the NSF” value is “significantly reduced”. For the same molecule, the “ketamine-induced disruption of PPI” value in the data set on Male ICR mice [3] (betaine 100 mg/kg pretreatment, ketamine 30 mg/kg) is “significantly attenuated”. Moreover, in the data set on Male ICR mice [3] (betaine prior to saline), the “reduction of PPI” value is “did not”. The ketamine-induced locomotor hyperactivity entry in the data set with Male ICR mice [4] (betaine 30 and 100 mg/kg 30 min prior to ketamine 30 mg/kg) is reported as “not affected”. Moreover, in the data set with Male ICR mice [4] (setting [10]), the time in center entry is recorded as “did not affect”. Further, the “travel distances (locomotor activity)” value in the data set with Male ICR mice [4] (setting [10]) is listed as “did not affect”. The “duration of immobility in FST compared with ketamine (10 mg/kg) alone” value with Male ICR mice [5] (setting [11]) is recorded as “significantly shorter duration of immobility”; in the data set on Male ICR mice [5] (betaine 30 mg/kg pretreatment prior to ketamine 10 mg/kg, over both sessions) it was “significantly shorter duration of immobility”. Further, the “duration of swimming in FST compared with ketamine (10 mg/kg)” value in the data set on Male ICR mice [5] (setting [11]) was “longer duration of swimming”. The “duration of struggling in FST” value is “significantly increased” in the data set with Male ICR mice [5] (betaine 30 mg/kg, day 7 retest session, vs control); “significantly increased” in the data set on Male ICR mice [5] (betaine 20 and 30 mg/kg, over both sessions). Besides, the “duration of immobility in FST” value is given as “significantly decreased” with Male ICR mice [5] (betaine 10, 20 and 30 mg/kg pretreatment prior to ketamine 10 mg/kg, day 7 retest session, vs vehicle control); “significantly decreased” in the data set with Male ICR mice [5] (betaine 10, 20 and 30 mg/kg pretreatment prior to ketamine 10 mg/kg, main effect over both sessions); “significantly reduced” in the data set with Male ICR mice [5] (betaine 10, 20 and 30 mg/kg prior to ketamine 10 mg/kg, day 1 test session, vs vehicle control); “significantly reduced” in the data set on Male ICR mice [5] (betaine 20 and 30 mg/kg, day 1 test session, vs vehicle control); “significantly decreased” in the data set on Male ICR mice [5] (betaine 20 and 30 mg/kg, day 7 retest session, vs vehicle control); “significantly decreased” in the data set on Male ICR mice [5] (betaine 20 and 30 mg/kg, main effect over both sessions). Besides, the “duration of swimming in FST” value with Male ICR mice [5] (betaine 10, 20 and 30 mg/kg prior to ketamine 10 mg/kg, day 7 retest session, vs control) is on record as “significantly increased”; with Male ICR mice [5] (betaine 20 and 30 mg/kg, day 1 test session, vs control), “significantly increased”. Besides, the “duration of ketamine-induced loss of righting reflex” value with Male ICR mice [6] (setting [12]) is listed as “did not affect”. The “onset of ketamine-induced loss of righting reflex” value in the data set with Male ICR mice [6] (setting [12]) is listed as “did not affect”. Moreover, in the data set on Male ICR mice [7] (betaine 30 and 100 mg/kg i.p. 30 min prior to ketamine 30 mg/kg), the “ketamine-induced motor in coordination” value is reported as “significantly reduced”. Moreover, in the data set on Male ICR mice [8] (betaine 20 and 30 mg/kg), the “count of immobility in FST” value is reported as “significantly decreased”.
